# Target: T1, human GLUT1 (Homo sapiens, UniProt P11166)
# T1 construct: expressed in transfected cells
# T1 sequence (P11166 1-492): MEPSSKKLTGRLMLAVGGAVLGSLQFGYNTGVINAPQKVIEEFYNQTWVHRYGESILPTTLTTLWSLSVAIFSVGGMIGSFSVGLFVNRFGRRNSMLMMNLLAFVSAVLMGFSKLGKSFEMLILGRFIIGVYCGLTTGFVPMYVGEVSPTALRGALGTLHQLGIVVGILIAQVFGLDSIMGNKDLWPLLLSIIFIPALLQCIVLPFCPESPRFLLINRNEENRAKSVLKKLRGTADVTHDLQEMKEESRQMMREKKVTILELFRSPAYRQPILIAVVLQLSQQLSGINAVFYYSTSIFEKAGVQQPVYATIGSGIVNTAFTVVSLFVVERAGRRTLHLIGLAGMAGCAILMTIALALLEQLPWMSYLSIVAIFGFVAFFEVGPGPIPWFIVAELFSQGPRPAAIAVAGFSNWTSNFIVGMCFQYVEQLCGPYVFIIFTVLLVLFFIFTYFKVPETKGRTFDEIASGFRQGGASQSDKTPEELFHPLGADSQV
# Test: [3H]-deoxy-D-glucose uptake assay, GLUT1
# Format: cell-based
# Conditions: [3H]-deoxy-D-glucose uptake in HEK293 cells stably expressing human GLUT1
# Description: HEK293 cells were engineered to stably express either human GLUT1, GLUT2, GLUt3 or GLUT4 by transfection with the pReceiver-Lv105 plasmid, containing either hGLUT1, hGLUT2, hGLUT3, or hGLUT4 gene constructs with lipofectamine 2000, hGLUT1- hGLUT2- hGLUT3- or hGLUT4-overexpressing polyclonal populations were isolated under purinomycin selective pressure (1 μg/ml) and maintained in Dulbecco's modified Eagle's medium supplemented with 1 μg/ml purinomycin+10% foetal bovine serum (FBS).
# 60,000 cells per well were seeded overnight into poly-D-lysine coasted 96-well plates. […] 90 μl of test compounds were added in glucose-free uptake buffer and cells were incubated at 37° C. for 30 min.
# Cells were then washed twice with ice-cold PBS and 100 μl of Microscint-20 was added per well. Glucose uptake was quantified with a scintillation counter. The half maximal inhibitory concentration (IC50) (a measure of the effectiveness of the test compound in inhibiting glucose uptake) was determined.
row,Structure (SMILES),GLUT1 pIC50
1,Clc1ccc(-c2nc3ccc(-c4ccccc4)cn3c2CN2CCOCC2)cc1 [Compound 1],++ (pIC50 5.00-5.99)
2,Clc1ccc(-c2nc3ccccn3c2CN2CCOCC2)cc1 [Compound 3],++ (pIC50 5.00-5.99)
3,Clc1ccc(-c2nc3ccc(Cl)cn3c2CN2CCSCC2)cc1 [Compound 4],+ (pIC50 4.00-4.99)
4,Clc1ccc(-c2nc3ccc(Cl)cn3c2CN2CCCCC2)cc1 [Compound 5],+ (pIC50 4.00-4.99)
5,Cc1ccc2nc(-c3ccccc3)c(CN3CCSCC3)n2c1 [Compound 6],+− (pIC50 < 4.00)
6,Cc1ccc2nc(-c3ccccc3)c(CN3CCN(c4ccccc4F)CC3)n2c1 [Compound 7],+ (pIC50 4.00-4.99)
7,CCS(=O)(=O)N1CCN(Cc2c(-c3cccc([N+](=O)[O-])c3)nc3ccc(-c4ccccc4)cn23)CC1 [Compound 9],++ (pIC50 5.00-5.99)
8,Cc1ccc(-c2cn3cc(-c4ccccc4)ccc3n2)cc1 [Compound 11],+ (pIC50 4.00-4.99)
9,O=[N+]([O-])c1ccc(-c2nc3ccc(-c4ccccc4)cn3c2CN2CCNCC2)cc1 [Compound 12],+ (pIC50 4.00-4.99)
10,O=C(c1cccs1)N1CCN(Cc2c(-c3ccc([N+](=O)[O-])cc3)nc3ccc(-c4ccccc4)cn23)CC1 [Compound 13],+++ (pIC50 ≧ 6.00)
11,O=C(c1ccco1)N1CCN(Cc2c(-c3cccc([N+](=O)[O-])c3)nc3ccc(-c4ccccc4)cn23)CC1 [Compound 15],++ (pIC50 5.00-5.99)
12,COc1cccc(-c2nc3ccc(-c4ccccc4)cn3c2CN2CCN(C(=O)C3CCC3)CC2)c1 [Compound 16],++ (pIC50 5.00-5.99)
13,COCCNC(=O)CCc1c(-c2ccc([N+](=O)[O-])cc2)nc2ccc(-c3ccccc3)cn12 [Compound 17],+− (pIC50 < 4.00)
14,O=C(COCc1ccccc1)N1CCN(Cc2c(-c3ccc(Cl)cc3)nc3ccc(-c4ccccc4)cn23)CC1 [Compound 18],+++ (pIC50 ≧ 6.00)
15,Cc1cccc(C)c1NC(=O)N1CCN(Cc2c(-c3ccc(Cl)cc3)nc3ccc(-c4ccccc4)cn23)CC1 [Compound 19],+++ (pIC50 ≧ 6.00)
16,COc1cccc(-c2nc3ccc(-c4ccccc4)cn3c2CN2CCN(C(=O)c3cccs3)CC2)c1 [Compound 20],+++ (pIC50 ≧ 6.00)
17,O=C(c1cccc([N+](=O)[O-])c1)N1CCN(Cc2c(-c3ccc(Cl)cc3)nc3ccc(-c4ccccc4)cn23)CC1 [Compound 21],++ (pIC50 5.00-5.99)
18,O=C(C1CCCC1)N1CCN(Cc2c(-c3ccc([N+](=O)[O-])cc3)nc3ccc(-c4ccccc4)cn23)CC1 [Compound 24],+++ (pIC50 ≧ 6.00)
19,CCS(=O)(=O)N1CCN(Cc2c(-c3cccc(OC)c3)nc3ccc(-c4ccccc4)cn23)CC1 [Compound 25],++ (pIC50 5.00-5.99)
20,COc1cccc(-c2nc3ccc(-c4ccccc4)cn3c2CN2CCN(C(=O)C3CC3)CC2)c1 [Compound 26],++ (pIC50 5.00-5.99)
21,Clc1ccc(-c2nc3ccc(Cl)cn3c2CN2CCOCC2)cc1 [Compound 27],++ (pIC50 5.00-5.99)
22,CC1CN(Cc2c(-c3ccccc3)nc3ccc(Cl)cn23)CC(C)O1 (stereo not shown) [Compound 28],++ (pIC50 5.00-5.99)
23,CC1CN(Cc2c(-c3ccccc3)nc3ccccn23)CC(C)O1 (stereo not shown) [Compound 29],+ (pIC50 4.00-4.99)
24,Cc1ccc2nc(-c3ccccc3)c(CN3CCNC(=O)C3)n2c1 [Compound 30],+− (pIC50 < 4.00)
25,O=C(C1CCC1)N1CCN(Cc2c(-c3cccc([N+](=O)[O-])c3)nc3ccc(-c4ccccc4)cn23)CC1 [Compound 33],++ (pIC50 5.00-5.99)
26,COc1cccc(-c2nc3ccc(-c4ccccc4)cn3c2CN2CCN(C(=O)CC(C)C)CC2)c1 [Compound 34],++ (pIC50 5.00-5.99)

row,Structure (SMILES),GLUT1 pIC50
1,COc1cccc(-c2nc3ccc(-c4ccccc4)cn3c2CN2CCN(C(=O)C3CCCC3)CC2)c1 [Compound 35],+++ (pIC50 ≧ 6.00)
2,COc1ccc(C(=O)N2CCN(Cc3c(-c4ccc(OC)cc4)nc4ccc(-c5ccccc5)cn34)CC2)cc1 [Compound 36],+++ (pIC50 ≧ 6.00)
3,CC(C)(C)CC(=O)N1CCN(Cc2c(-c3ccc([N+](=O)[O-])cc3)nc3ccc(-c4ccccc4)cn23)CC1 [Compound 38],++ (pIC50 5.00-5.99)
4,COc1cccc(-c2nc3ccc(-c4ccccc4)cn3c2CN2CCN(C(=O)c3ccccc3Cl)CC2)c1 [Compound 39],+ (pIC50 4.00-4.99)
5,Cc1ccc(C(=O)N2CCN(Cc3c(-c4ccc(F)cc4)nc4ccc(-c5ccccc5)cn34)CC2)cc1 [Compound 40],++ (pIC50 5.00-5.99)
6,CC(C)(C)NC(=O)N1CCN(Cc2c(-c3ccc(Cl)cc3)nc3ccc(-c4ccccc4)cn23)CC1 [Compound 41],++ (pIC50 5.00-5.99)
7,CC(C)(C)c1ccc(C(=O)N2CCN(Cc3c(-c4ccc(Cl)cc4)nc4ccc(-c5ccccc5)cn34)CC2)cc1 [Compound 42],+ (pIC50 4.00-4.99)
8,CC(C)CC(=O)N1CCN(Cc2c(-c3ccc(Cl)cc3)nc3ccc(-c4ccccc4)cn23)CC1 [Compound 43],+++ (pIC50 ≧ 6.00)
9,O=C(c1ccccc1)N1CCN(Cc2c(-c3ccc(Cl)cc3)nc3ccc(-c4ccccc4)cn23)CC1 [Compound 44],+++ (pIC50 ≧ 6.00)
10,O=C(c1ccccc1F)N1CCN(Cc2c(-c3ccc(Cl)cc3)nc3ccc(-c4ccccc4)cn23)CC1 [Compound 45],+++ (pIC50 ≧ 6.00)
11,CC(C)(C)CC(=O)N1CCN(Cc2c(-c3ccc(Cl)cc3)nc3ccc(-c4ccccc4)cn23)CC1 [Compound 46],++ (pIC50 5.00-5.99)
12,O=C(C1CCCC1)N1CCN(Cc2c(-c3ccc(Cl)cc3)nc3ccc(-c4ccccc4)cn23)CC1 [Compound 47],+++ (pIC50 ≧ 6.00)
13,COc1cccc(-c2nc3ccc(-c4ccccc4)cn3c2CN2CCN(C(=O)c3ccc(F)cc3)CC2)c1 [Compound 49],+++ (pIC50 ≧ 6.00)
14,Cc1ccc(-c2nc3ccc(-c4ccccc4)cn3c2CN2CCN(C(=O)c3ccc(F)cc3)CC2)cc1 [Compound 50],+++ (pIC50 ≧ 6.00)
15,COc1cccc(-c2nc3ccc(-c4ccccc4)cn3c2CN2CCN(C(=O)c3ccco3)CC2)c1 [Compound 51],++ (pIC50 5.00-5.99)
16,COc1cccc(-c2nc3ccc(-c4ccccc4)cn3c2CN2CCN(C(=O)c3cccc(F)c3)CC2)c1 [Compound 52],+++ (pIC50 ≧ 6.00)
17,O=C(c1ccc(F)cc1)N1CCN(Cc2c(-c3ccc(Cl)cc3)nc3ccc(-c4ccccc4)cn23)CC1 [Compound 53],+++ (pIC50 ≧ 6.00)
18,COc1cccc(-c2nc3ccc(-c4ccccc4)cn3c2CN2CCN(C(=O)C(C)C)CC2)c1 [Compound 54],++ (pIC50 5.00-5.99)
19,CC(C)C(=O)N1CCN(Cc2c(-c3cccc([N+](=O)[O-])c3)nc3ccc(-c4ccccc4)cn23)CC1 [Compound 55],++ (pIC50 5.00-5.99)
20,O=C(C1CC1)N1CCN(Cc2c(-c3cccc([N+](=O)[O-])c3)nc3ccc(-c4ccccc4)cn23)CC1 [Compound 56],++ (pIC50 5.00-5.99)
21,COCC(=O)N1CCN(Cc2c(-c3cccc(OC)c3)nc3ccc(-c4ccccc4)cn23)CC1 [Compound 57],++ (pIC50 5.00-5.99)
22,CC(C)(C)CC(=O)N1CCN(Cc2c(-c3cccc([N+](=O)[O-])c3)nc3ccc(-c4ccccc4)cn23)CC1 [Compound 58],+ (pIC50 4.00-4.99)
23,CC(=O)N1CCN(Cc2c(-c3cccc([N+](=O)[O-])c3)nc3ccc(-c4ccccc4)cn23)CC1 [Compound 59],++ (pIC50 5.00-5.99)
24,CC(C)CC(=O)N1CCN(Cc2c(-c3cccc([N+](=O)[O-])c3)nc3ccc(-c4ccccc4)cn23)CC1 [Compound 60],+ (pIC50 4.00-4.99)
25,CC(=O)N1CCN(Cc2c(-c3ccc(Cl)cc3)nc3ccc(-c4ccccc4)cn23)CC1 [Compound 61],+++ (pIC50 ≧ 6.00)
26,CCC(=O)N1CCN(Cc2c(-c3ccc(Cl)cc3)nc3ccc(-c4ccccc4)cn23)CC1 [Compound 62],+++ (pIC50 ≧ 6.00)
